In US9872870B2, “Multifunctional micellar nanoparticle-based drug and targeting agent system” (University of Notre Dame du Lac, priority 2011, dated 2018):

Experiments:
[1] = tested on: NCI-H929 subcutaneous xenograft; test: Subcutaneous xenograft model of MM, tumor growth; type: in vivo, CB.17 SCID mice; details: 6 mg/kg Dox equivalents iv on days 1, 3 and 5
Experimental: (§1) To validate the therapeutic efficacy of multifunctional nanoparticles, CB.17 SCID mice (Harlan Laboratories) were irradiated with 150 rad, and were inoculated subcutaneously with 5×10^6 NCI-H929 cells. […] When the tumors were palpable, each mouse was injected with the drug, intravenously, on days 1, 3, and 5. […] Animals were monitored for body weight and tumor volume by caliper measurements. Tumor growth inhibition was detected by caliper measurements (left). Data shown are means (±SE) of n=6-8 per treatment group. Statistical comparisons of continuous variables were carried out by Student's two-tailed t-test and were considered significant when P<0.05.
(§2) For determination of systemic toxicity, 3 additional mice from each group were sacrificed on day 5 before any lethality was observed. Organ weights were measured. For complete blood count analysis, 200 μl of blood was drawn from each mouse via cardiac puncture, immediately mixed with 50 μl of Sequester Solution (Cambridge Diagnostic Products), and was analyzed with the HemaVet950 (Drew Scientific). Immunohistochemical staining of excised tumors for caspase-3 was performed as previously described.
Three mice from each group were dissected on day 5 and tumors were stained for activated caspase-3. Representative images of tumor cross-sections that were captured using a Nikon Eclipse TS100 microscope at 20× magnification are shown.

[2] = tested on: NCI-H929 cells; test: Cytotoxicity on fibronectin or BSA coated plates (CAM-DR)
Experimental: Cytotoxicity assays: Cytotoxicity was determined using Cell Counting Kft-8 (Dojindo) as previously described. […] In all cases, cell viability was assessed by cell counting kit-8 (CCK-8), and data represent means (±SD) of triplicate cultures.
Cell viability was assessed by cell counting kit-8 (CCK-8), and data represent means (±SD) of triplicate cultures.

[3] = Systemic toxicity in tumor bearing mice (body weight, lethality, blood count, organ weights, histopathology); type: in vivo, CB.17 SCID mice
Experimental: as §1, §2
To evaluate systemic toxicity, analysis of complete blood cell count, which is highly susceptible to chemotherapeutic agents, was performed. Three mice from each group were dissected on day 5, and complete blood count (white blood cell, red blood cell, and thrombocyte) was performed (FIG. 12e). Data represents means (±SE). *P<0.05, when compared to free Dox group.

[4] = tested on: NCI-H929 cells; test: DNA double strand breaks and apoptosis (western blot, immunocytochemistry, Annexin V); type: cell-based, human; details: 250 nM Dox equivalents, 0-48 h
Experimental: It is well established that Dox induces DNA double strand breaks (DSBs) and apoptosis of cancer cells. An early specific cellular response to DSBs in mammalian cells is the phosphorylation of the histone protein H2AX (γ-H2AX), with respective foci formation. Therefore, we examined whether free Dox and NPDox/VLA-4-pep triggered similar signaling cascades of DNA damage and apoptosis in MM cells. […] Phosphorylation of DNA damage response protein H2AX at Ser139 was assayed by western blotting (FIG. 10a). Respective H2AX foci formation was assayed by immunocytochemistry (FIG. 10b). Apoptosis was assessed by flow cytometry following Annexin V-FITC staining (FIG. 10c), and by western blotting for PARP cleavage and caspase-8 and caspase-9 activation (FIG. 10d).
For immunocytochemistry analysis, cytospins of drug-treated cells were prepared on glass slides and fixed with 4% paraformaldehyde. Slides were blocked with 5% goat serum, incubated with y-H2AX antibody (Cell Signaling) overnight at 4° C., and then with AlexaFluor-488-labelled Fab2 (Molecular Probes). Coverslips were then mounted on the glass slides with VectaShield antifade/DAR (Vector Labs) and analyzed by Nikon Eclipse TS100 fluorescence microscope at 60×/0.5-1.25 oil, with a Nikon Infinity camera. For flow cytometric analysis, data represent means (±SD) of triplicate experiments. For western blotting, representative images are shown, and all antibodies were purchased from Cell Signaling.

[5] = tested on: NCI-H929 MM cells; test: Cytotoxicity assay (Cell Counting Kit-8); type: cell-based, human; details: Dox equivalents
Experimental: To determine cytotoxicity in the presence of fibronectin, MM cells were plated on fibronectin coated plates (40 μg/ml), in adhesion buffer, for 1 h. […] BSA coated plates were used as controls.

COc1cccc2c1C(=O)c1c(O)c3c(c(O)c1C2=O)C[C@@](O)(C(=O)CO)C[C@@H]3O[C@H]1C[C@H](N)[C@H](O)[C@H](C)O1 [free Dox, doxorubicin]
tumor growth inhibition [1]: dramatic tumor growth inhibition | IC50, cytotoxicity in the presence of fibronectin [2]: 0.421-0.09 μM | IC50 shift caused by adhesion to fibronectin (CAM-DR) ([2]; fibronectin vs BSA coated plates, 72 h): 3 fold | lethality ([3]; 6 mg/kg Dox equivalents iv on days 1, 3 and 5): lethality of all mice on day 7 | body weight loss ([3]; 6 mg/kg iv on days 1, 3 and 5): significant loss of body weight | liver mass loss and histopathology ([3]; day 5): moderate hepatocellular hypertrophy and degeneration | spleen mass loss and histopathology ([3]; day 5): severe fibrosis | H2AX phosphorylation [4]: induced H2AX phosphorylation | apoptosis (annexin V, PARP and caspase-8 activation) [4]: induced apoptosis | caspase-9 activation [4]: No significant caspase-9 activation | IC50 ([5]; NCI-H929, 48 h): 190 ± 40 nM | IC50 ([5]; NCI-H929, 72 h): ~130 nM
